Drawing on BindingDB's records for doi:10.1021/acs.jmedchem.5b00261 (Genentech, 2015), this text covers EC50 for 1 compound.

The test is described as follows: Inhibition of LRRK2 G2019S mutant-induced neuronal toxicity in human cortical neurons.

As a reminder, the EC50 is the midpoint of the concentration-response curve. Compound `COc1cc(N2CCOCC2)ccc1Nc1ncc(F)c(Nc2ccccc2NS(C)(=O)=O)n1` registered a concentration giving a half-maximal response (EC50) of 4 nM.
